A word on the IC50: it is the concentration at which inhibition is half-maximal. A word on the EC50: it is the concentration needed to bring the measured effect to its halfway point. Broadly, the AC50 is the concentration giving half of the maximal activity seen.

The target in experiment [1] is T1, Dual specificity protein phosphatase 6 (Rattus norvegicus, UniProt Q64346).
T1 sequence (Q64346 whole entry): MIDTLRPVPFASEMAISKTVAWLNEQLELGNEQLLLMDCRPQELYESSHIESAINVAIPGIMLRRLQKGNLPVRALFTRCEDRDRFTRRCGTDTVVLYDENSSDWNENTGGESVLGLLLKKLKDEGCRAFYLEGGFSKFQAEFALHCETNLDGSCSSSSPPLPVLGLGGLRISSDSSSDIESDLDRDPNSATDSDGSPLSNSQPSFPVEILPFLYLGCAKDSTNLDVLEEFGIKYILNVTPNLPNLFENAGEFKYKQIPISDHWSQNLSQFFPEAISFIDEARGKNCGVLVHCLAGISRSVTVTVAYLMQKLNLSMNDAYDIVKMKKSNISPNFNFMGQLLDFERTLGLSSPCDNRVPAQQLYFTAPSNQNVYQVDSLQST
The experiment is described as follows: inhibition of rat DUSP6 enzyme activity – biochemical, in vitro, primary screen (AID 425).

In experiment [2] the target is Intestinal-type alkaline phosphatase (Homo sapiens, UniProt P09923). Nature of the experiment: activation of human intestinal alkaline phosphatase – biochemical, dose response (AID 488873). In kind it is functional.
The target in experiment [3] is Beta-adrenergic receptor kinase 1 (Homo sapiens, UniProt P25098). The experiment is described as follows: aptamer displacement from bead-bound GRK2 – biochemical, cherry pick 1, bead flow cytometry, dose response (AID 504500). Background: A flow cytometer gives signals particle by particle.
The target in experiment [4] is Intestinal-type alkaline phosphatase (Mus musculus, UniProt P24822). Nature of the experiment: mouse intestinal alkaline phosphatase activators, dose response, biochemical, luminescence, uHTS hits (AID 488783). The experiment is classed as functional.
For experiment [5], the target named is T2, Alkaline phosphatase, tissue-nonspecific isozyme (Homo sapiens, UniProt P05186).
T2 sequence (P05186 whole entry): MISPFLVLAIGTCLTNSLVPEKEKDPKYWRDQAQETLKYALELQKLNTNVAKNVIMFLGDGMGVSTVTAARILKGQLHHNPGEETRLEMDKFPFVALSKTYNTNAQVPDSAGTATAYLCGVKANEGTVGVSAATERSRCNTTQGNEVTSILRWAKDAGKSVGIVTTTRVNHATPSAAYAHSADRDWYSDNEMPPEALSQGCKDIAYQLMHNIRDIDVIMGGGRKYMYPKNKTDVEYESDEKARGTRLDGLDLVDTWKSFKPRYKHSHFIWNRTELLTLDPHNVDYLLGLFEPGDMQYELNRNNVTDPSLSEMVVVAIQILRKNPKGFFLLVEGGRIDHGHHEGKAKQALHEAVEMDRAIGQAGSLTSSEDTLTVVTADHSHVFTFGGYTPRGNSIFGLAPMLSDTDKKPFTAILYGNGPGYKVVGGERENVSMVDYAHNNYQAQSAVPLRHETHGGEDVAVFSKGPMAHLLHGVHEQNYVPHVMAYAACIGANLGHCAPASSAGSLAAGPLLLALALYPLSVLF
The experiment is described as follows: activation of tissue-nonspecific alkaline phosphatase – biochemical, TNAP isozyme, mouse IAP uHTS hits, selectivity assay for mouse IAP activator project, dose response (AID 488880). In kind it is functional.

Experiment [6] is described as follows: Luminescence Cell-Based Dose Response HTS to Identify Activators of Luciferase Translation or Activity in H4 […] Cells. [Related pubchem assays: 1829 (Project Summary), 1814 (Primary HTS)]. The experiment is classed as functional.
The test system of the next experiment is H4. Nature of the experiment: Luminescence Cell-Based Dose Response HTS to Identify Activators of 5'UTR Stem-Loop Driven Prion Protein mRNA Translation in H4 Neuroglioblastoma Cells. [Related pubchem assays: 1829 (Project Summary), 1814 (Primary HTS)]. As to conditions: Homo sapiens. In kind it is functional.
The next experiment relates to HeLa. The experiment is described as follows: ATP-based viability loss in HeLa cells – cell-based, CellTiter-Glo luminescence, cherry-pick samples, cytotoxicity control for MITF activator project, dose response (AID 540259). In kind it is functional. Particulars: Homo sapiens. (In general: In ATP-based viability assays light output follows the ATP content of the culture.)

The target in experiment [7] is Peroxisome proliferator-activated receptor gamma/Nuclear receptor coactivator 2 (Homo sapiens, UniProt P37231). In kind it is functional.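 Further: agonist potency for raising coactivator recruitment to the receptor.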
Experiment [8] concerns the target Peroxisome proliferator-activated receptor gamma/Nuclear receptor coactivator 1 (Homo sapiens, UniProt P37231). The experiment is classed as functional.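 Further: agonist potency as compounds enhance coactivator SRC-1 recruitment to PPARgamma.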
Experiment [9] deals with Peroxisome proliferator-activated receptor gamma/Nuclear receptor coactivator 3 (Homo sapiens, UniProt P37231). The experiment is classed as functional.
Experiment [10] concerns A-375. Nature of the experiment: MITF: Counter assay: A375 proliferation Measured in Cell-Based System Using Plate Reader - 2084-03_Inhibitor_Dose_DryPowder_Activity. [Related pubchem assays (depositor defined):AID488944]. In kind it is functional. Particulars: Homo sapiens.
In experiment [11] the test system is A-375. Nature of the experiment: proliferation inhibition in MITF-low A375 cells – cell-based, cherry-pick samples, set 2, counter-screen for MITF modulator project, dose response (AID 540335). The experiment is classed as functional. Particulars: Homo sapiens. (The purpose of a counterscreen is to sort out artefacts and off-target activity.)
Experiment [12] addresses Voltage-gated inwardly rectifying potassium channel KCNH2 (Homo sapiens, UniProt Q12809). Particulars: Potency.
The target of the next experiment is Phospholipase D1 (Homo sapiens, UniProt Q13393). The experiment is described as follows: cellular phospholipase D1 inhibition IC50 – cell-based, dose response (AID 602151).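 Further: cellular PLD1 assay in Calu-1 cells stimulated with PMA.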 In kind it is functional.
The target of a further experiment is Phospholipase D2 (Homo sapiens, UniProt O14939). The experiment is described as follows: cellular phospholipase D2 inhibition IC50 – cell-based, dose response (AID 602147).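 Further: cellular assay in HEK293 cells overexpressing GFP-tagged PLD2.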 In kind it is functional.
Experiment [13] concerns HEK293. Nature of the experiment: HEK293T cell viability loss, resazurin readout – resazurin fluorescence, cytotoxicity control for NF-kB activator project, SAR follow-up (AID 493251). In kind it is functional, cell-based. Particulars: Homo sapiens.
Another experiment deals with Jurkat. Nature of the experiment: SAR Analysis of small molecule inhibitors of T-cell specific antigen receptor-induced NF-kB activation in a Jurkat cell line using a luminescence assay - Set 2. [Related pubchem assays (depositor defined):AID435003, AID435012, AID465]. Particulars: Homo sapiens. In kind it is functional, cell-based.
Experiment [14] concerns HEK293. The experiment is described as follows: SAR Analysis of small molecule inhibitors of T-cell specific antigen receptor-induced NF-kB activation in a HEK-293T cell line using a luminescence assay - Set 2. [Related pubchem assays (depositor defined):AID435003, AID435012, AID489026]. In kind it is functional, cell-based. Particulars: Homo sapiens.

Activity calls are given as the source filed them. Some results are limits rather than exact numbers.

Phospholipase D2, sequence (O14939 whole entry): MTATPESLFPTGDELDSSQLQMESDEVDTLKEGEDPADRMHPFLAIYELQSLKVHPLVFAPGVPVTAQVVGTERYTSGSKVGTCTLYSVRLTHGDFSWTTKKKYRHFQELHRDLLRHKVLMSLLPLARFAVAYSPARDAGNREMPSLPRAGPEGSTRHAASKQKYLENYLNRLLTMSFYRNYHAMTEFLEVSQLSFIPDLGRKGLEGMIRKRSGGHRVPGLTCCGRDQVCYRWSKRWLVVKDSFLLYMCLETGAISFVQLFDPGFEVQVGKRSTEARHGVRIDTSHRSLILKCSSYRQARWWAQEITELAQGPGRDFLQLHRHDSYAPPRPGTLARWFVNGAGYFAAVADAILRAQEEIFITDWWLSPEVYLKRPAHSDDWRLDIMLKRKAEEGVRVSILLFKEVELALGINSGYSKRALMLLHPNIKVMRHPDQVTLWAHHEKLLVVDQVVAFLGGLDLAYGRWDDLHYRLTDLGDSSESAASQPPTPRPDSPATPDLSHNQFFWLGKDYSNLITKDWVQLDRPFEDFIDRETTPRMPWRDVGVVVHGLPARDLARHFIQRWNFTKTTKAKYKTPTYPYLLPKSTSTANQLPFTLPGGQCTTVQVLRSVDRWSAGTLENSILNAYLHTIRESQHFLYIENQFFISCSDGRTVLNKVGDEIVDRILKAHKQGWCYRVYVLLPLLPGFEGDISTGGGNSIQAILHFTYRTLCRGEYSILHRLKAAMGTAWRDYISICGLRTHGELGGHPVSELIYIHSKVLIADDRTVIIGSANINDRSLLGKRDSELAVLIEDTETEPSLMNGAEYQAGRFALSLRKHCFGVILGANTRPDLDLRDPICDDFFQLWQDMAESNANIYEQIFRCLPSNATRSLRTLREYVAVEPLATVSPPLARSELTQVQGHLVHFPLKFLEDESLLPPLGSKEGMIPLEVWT
Beta-adrenergic receptor kinase 1, sequence (P25098 whole entry): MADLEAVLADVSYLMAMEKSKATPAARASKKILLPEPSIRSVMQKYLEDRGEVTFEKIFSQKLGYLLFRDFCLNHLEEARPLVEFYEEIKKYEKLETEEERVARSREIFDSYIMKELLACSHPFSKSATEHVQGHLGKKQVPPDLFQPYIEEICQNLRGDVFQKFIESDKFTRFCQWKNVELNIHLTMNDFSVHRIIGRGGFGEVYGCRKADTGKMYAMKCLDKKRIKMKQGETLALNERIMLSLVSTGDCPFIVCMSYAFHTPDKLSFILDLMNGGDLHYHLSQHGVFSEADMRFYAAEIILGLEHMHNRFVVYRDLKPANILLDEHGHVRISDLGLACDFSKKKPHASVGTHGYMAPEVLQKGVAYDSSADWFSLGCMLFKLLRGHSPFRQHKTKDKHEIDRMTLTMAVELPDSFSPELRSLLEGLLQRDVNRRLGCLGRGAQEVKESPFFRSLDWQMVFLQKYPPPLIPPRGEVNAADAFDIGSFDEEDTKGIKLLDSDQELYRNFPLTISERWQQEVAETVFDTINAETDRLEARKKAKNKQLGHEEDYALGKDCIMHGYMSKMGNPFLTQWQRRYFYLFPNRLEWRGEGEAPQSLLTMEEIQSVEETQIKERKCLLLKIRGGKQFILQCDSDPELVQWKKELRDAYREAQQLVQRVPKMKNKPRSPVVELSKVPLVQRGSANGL
Voltage-gated inwardly rectifying potassium channel KCNH2, sequence (Q12809 whole entry): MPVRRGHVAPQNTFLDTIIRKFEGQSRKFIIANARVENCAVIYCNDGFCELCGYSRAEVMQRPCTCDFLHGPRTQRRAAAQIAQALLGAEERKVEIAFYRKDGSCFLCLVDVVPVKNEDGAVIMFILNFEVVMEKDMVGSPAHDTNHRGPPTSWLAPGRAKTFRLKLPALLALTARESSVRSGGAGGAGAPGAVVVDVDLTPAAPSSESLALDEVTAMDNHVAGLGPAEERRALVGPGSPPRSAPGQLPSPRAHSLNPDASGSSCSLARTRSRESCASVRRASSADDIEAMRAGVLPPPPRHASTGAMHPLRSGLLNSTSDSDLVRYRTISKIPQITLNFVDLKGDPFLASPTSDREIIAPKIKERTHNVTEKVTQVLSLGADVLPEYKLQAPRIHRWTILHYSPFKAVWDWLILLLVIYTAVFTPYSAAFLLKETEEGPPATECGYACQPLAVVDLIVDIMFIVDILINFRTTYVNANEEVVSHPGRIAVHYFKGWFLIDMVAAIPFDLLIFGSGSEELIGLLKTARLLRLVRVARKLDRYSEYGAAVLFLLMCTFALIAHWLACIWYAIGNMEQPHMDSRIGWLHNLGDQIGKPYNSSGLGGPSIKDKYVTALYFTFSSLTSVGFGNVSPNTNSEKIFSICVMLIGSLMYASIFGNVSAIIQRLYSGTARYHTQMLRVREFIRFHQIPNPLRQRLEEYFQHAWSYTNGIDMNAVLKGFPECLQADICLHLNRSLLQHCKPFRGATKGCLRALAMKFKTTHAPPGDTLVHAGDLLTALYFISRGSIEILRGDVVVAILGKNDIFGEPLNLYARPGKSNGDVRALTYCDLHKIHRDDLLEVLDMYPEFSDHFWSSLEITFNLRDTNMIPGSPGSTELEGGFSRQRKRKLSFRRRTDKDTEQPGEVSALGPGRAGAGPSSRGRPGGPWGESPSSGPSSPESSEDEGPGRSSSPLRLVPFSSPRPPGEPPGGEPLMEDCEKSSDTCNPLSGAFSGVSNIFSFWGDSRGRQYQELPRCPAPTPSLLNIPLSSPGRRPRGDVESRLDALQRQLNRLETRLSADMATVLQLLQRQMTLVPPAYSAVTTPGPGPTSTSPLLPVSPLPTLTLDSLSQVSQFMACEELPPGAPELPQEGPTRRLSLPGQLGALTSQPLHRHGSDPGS
Peroxisome proliferator-activated receptor gamma/Nuclear receptor coactivator 2, sequence (P37231 whole entry): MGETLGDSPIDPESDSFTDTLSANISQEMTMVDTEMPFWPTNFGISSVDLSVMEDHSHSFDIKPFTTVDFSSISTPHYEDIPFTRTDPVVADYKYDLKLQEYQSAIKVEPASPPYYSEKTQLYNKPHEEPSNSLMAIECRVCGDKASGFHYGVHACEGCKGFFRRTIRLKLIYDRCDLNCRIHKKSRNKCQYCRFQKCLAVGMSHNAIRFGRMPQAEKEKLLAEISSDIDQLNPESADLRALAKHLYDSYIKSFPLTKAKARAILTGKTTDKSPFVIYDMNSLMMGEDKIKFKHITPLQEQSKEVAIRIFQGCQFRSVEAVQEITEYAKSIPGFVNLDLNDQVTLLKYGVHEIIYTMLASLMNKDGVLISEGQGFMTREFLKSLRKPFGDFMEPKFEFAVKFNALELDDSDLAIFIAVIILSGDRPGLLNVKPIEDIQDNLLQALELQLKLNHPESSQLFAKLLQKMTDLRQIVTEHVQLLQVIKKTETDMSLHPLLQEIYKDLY
Peroxisome proliferator-activated receptor gamma/Nuclear receptor coactivator 2, sequence (Q15596 whole entry, further chain): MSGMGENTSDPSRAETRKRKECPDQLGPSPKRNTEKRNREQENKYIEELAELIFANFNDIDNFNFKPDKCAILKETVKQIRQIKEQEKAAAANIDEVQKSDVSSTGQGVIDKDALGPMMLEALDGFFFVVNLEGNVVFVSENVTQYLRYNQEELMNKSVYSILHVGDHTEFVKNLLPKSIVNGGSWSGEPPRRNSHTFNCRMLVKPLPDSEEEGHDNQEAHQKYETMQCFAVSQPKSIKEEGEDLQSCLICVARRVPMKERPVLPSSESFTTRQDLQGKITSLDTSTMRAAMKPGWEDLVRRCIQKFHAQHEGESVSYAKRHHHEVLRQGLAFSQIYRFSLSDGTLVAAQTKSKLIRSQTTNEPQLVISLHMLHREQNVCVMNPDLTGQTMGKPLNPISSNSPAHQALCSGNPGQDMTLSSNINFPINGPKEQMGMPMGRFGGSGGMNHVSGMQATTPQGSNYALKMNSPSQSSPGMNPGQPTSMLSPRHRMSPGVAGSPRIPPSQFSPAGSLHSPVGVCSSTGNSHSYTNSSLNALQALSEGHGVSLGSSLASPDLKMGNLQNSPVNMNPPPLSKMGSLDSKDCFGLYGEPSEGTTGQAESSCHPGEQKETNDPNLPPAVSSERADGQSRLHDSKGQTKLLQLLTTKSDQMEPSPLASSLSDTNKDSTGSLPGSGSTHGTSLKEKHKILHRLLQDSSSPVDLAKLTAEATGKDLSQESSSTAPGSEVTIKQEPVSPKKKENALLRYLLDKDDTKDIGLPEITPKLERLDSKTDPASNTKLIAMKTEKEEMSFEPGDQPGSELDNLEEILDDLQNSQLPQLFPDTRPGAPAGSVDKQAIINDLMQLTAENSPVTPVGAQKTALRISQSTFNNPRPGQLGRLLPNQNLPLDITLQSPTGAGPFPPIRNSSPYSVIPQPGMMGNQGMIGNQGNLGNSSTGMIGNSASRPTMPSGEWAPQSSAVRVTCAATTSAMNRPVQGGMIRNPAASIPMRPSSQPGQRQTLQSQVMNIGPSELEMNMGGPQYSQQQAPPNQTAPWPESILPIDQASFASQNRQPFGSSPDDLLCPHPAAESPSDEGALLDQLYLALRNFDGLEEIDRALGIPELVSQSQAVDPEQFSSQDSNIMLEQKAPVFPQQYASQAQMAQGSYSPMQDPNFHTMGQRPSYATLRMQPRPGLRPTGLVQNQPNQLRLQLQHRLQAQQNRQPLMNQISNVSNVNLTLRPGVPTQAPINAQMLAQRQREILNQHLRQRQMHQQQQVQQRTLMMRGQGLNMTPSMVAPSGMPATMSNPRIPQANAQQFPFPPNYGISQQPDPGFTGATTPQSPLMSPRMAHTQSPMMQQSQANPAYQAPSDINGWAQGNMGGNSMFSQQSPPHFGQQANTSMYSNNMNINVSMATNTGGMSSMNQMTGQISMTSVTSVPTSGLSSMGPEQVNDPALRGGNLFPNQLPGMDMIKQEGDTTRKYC

For `CCOC(=O)C(C)Sc1nc2c(c(=O)[nH]c(=O)n2C)n1C/C=C(/C)Cl` (centres undefined), the IC50 in experiment [1] is recorded as > 10 µM (not active). Moreover, the EC50 is 74.2 µM (active) in experiment [2], 22.1 µM (inactive) in experiment [3], 69.8 µM (active) in [4] and 66.9 µM (active) in experiment [5].

`CCCc1cc2c(=O)c(-c3ccccn3)coc2cc1OC`: the figures for the EC50 (in [6]; with H4) were 0.182 µM (active) and > 120 µM (not active), respectively. In the experiment on HeLa, the AC50 was 73.5 µM (active).

`CC(C)OC(=O)CSc1nc2cc3c(cc2cc1C#N)OCO3`: the EC50 in experiment [7] is 10.2 µM (not active); in experiment [8], 11.9 µM (not active); in [9] it was 18.3 µM (not active). Also, the AC50 in the experiment on A-375 [10] and in the experiment with A-375 [11] was > 35 µM (active) throughout.

For the compound `CN(C)CCC(c1ccccc1)c1ccccn1` (centres undefined), the AC50 in experiment [12] was 35.5 µM (inconclusive).

For `CN(CCN1CCC2(CC1)C(=O)NCN2c1ccccc1)C(=O)c1ccc2ccccc2c1`, the IC50 was 20 µM (inactive) on Phospholipase D1 and 20 µM (active) at Phospholipase D2.

Consider `Cc1ccc(C(NC(=O)C2CCCCC2)c2ccc3cccnc3c2O)cc1` (centres undefined), for which the IC50 in the experiment on HEK293 [13] was 21 µM (inactive); in the experiment with Jurkat, 2.62 µM (active); in the experiment with HEK293 [14], 4.93 µM (active).

The values are drawn from ChEMBL document CHEMBL1201862, “PubChem BioAssay data set” (2004).
